# In US10543159B2, “Hair papilla cell activator” (Ezaki Glico Co., Ltd., priority 2014, dated 2020):
# How the values were obtained:
# [1] = test system: human follicle dermal papilla cells; experiment: Follicle dermal papilla cell proliferation, WST-1 (Example 1); format: cell-based
# Method: A strain (Lot. 3092504.12) sold by PromoCell (Germany) was used as human follicle dermal papilla cells. The cells were cultured in a CO2 incubator at 37° C., using a special medium for follicle dermal papilla cells (PromoCell), unless otherwise indicated. Cell subculturing was performed as follows: cells were seeded at 5000 to 10000 cells/cm^2 in an uncoated dish, and when the cells reached subconfluent, they were treated with trypsin-EDTA (0.03%) and detached, and then re-seeded. The trypsin-EDTA treatment allows complete detachment of the cells by incubation at 37° C. for nearly 10 minutes, with a high survival rate. The medium was replaced about once every 3 days.
# (1) Human follicle dermal papilla cells were seeded in a 96-well collagen I-coated plate (BD Biocoat Collagen I 96-well clear plate) at 1.6×10^3 cells/well and cultured at 37° C. for 24 hours. Cells were not seeded in two wells on the plate for blanks.
# (2) Solutions of the compositions shown in the table were prepared in a concentration series starting from a 10% (w/v) aqueous solution of POs-Ca (R), a 1.84% (w/v) aqueous solution of CaCl2.2H2O, or a 12.9% (w/v) aqueous solution of G1P-Ca.
# (3) The above-described aqueous solutions and the special medium were mixed at a ratio of 1:9 to prepare media having five different concentrations for each calcium species with a final concentration of 1/10 shown in Table 1. The media in each of the columns of Table 1 have the same calcium concentration. […]
# (7) Absorbance at 440 nm was measured for each well, using a fluorescence microplate reader (Varioskan Flash 2.4; Thermo Fisher Scientific, US).
# (8) The value obtained by subtracting the absorbance of the blank wells from the absorbance of the well of the sample was defined as the value of the relative amount of cells of the sample in each well. The degree of cell proliferation relative to the control was calculated by dividing the value of the relative amount of cells in each well, by the average value of the relative amount of cells in the control medium.
# versican = experiment: Quantitative PCR gene expression in follicle dermal papilla cells: versican; format: cell-based, human; conditions: Example 3: 0.25% POs-Ca (R) or CaCl2 of equivalent calcium, DMEM, 37° C., 5 hours; Dunnett, n=6
# Method: (§1) (1) 500 μl of a special medium in which 4×10^4 cells/ml of follicle dermal papilla cells were suspended was dispensed into a type I collagen-coated 24-well cell culture plate (Corning), and cultured at a cell density of 1.0×10^4 cells/cm^2 at 37° C. for 42 hours. (2) (a) Water (control), (b) a 2.5% (w/v) aqueous solution of POs-Ca (R), and (c) a 0.457% aqueous solution of CaCl2 (having an equivalent amount of calcium to that of (b)) were prepared. Each of the solutions (a) to (c) was mixed with DMEM high glucose (Sigma, USA) at a ratio of 1:9. […]
# (§2) (6) 0.5 μl of each of cDNA solutions diluted 2-fold with water, 1 μl of a solution containing 4 μM of each of primers 1 and 2 for each of the genes shown in Table 2, 5 μl of SYBR Premix Ex Taq II (Takara), and 3.5 μl of water were added, and quantitative PCR was performed on each of the genes. […] Fluorescence intensity after each cycle was measured.
# (§3) (8) The average value of calculated expression levels was determined for the six samples derived from the cells treated under the respective conditions, and defined as the expression level relative to the control.
# VEGF = experiment: Quantitative PCR gene expression in follicle dermal papilla cells: VEGF; format: cell-based, human; conditions: Example 3: 0.25% POs-Ca (R) or CaCl2 of equivalent calcium, DMEM, 37° C., 5 hours; Dunnett, n=6
# Wnt5a = experiment: Quantitative PCR gene expression in follicle dermal papilla cells: Wnt5a; format: cell-based, human; conditions: Example 3: 0.25% POs-Ca (R) or CaCl2 of equivalent calcium, DMEM, 37° C., 5 hours; Dunnett, n=6
# Method: (1) 500 μl of a special medium in which 4×10^4 cells/ml of follicle dermal papilla cells were suspended was dispensed into a type I collagen-coated 24-well cell culture plate (Corning), and cultured at a cell density of 1.0×10^4 cells/cm^2 at 37° C. for 42 hours. […] Each of the solutions (a) to (c) was mixed with DMEM high glucose (Sigma, USA) at a ratio of 1:9.
# (3) The medium was aspirated from each well obtained in (1), the well was washed by adding 1 ml of 1×PBS (137 mM NaCl, 8.1 mM Na2HPO4, 2.68 mM KCl, 1.47 mM KH2PO4 (pH 7.4); Wako Pure Chemical Industries, Ltd.), and aspirating the PBS, 500 μl of DMEM high glucose was added, and the cells were incubated in a CO2 incubator at 37° C. for 5 hours. […]
# (4) The medium was removed from each well, and then mRNA was extracted using CellAmp Direct RNA Prep Kit for RT-PCR (Takara). The method was performed in accordance with the manual for the kit.
# (5) 8 μl of the extracted mRNA solution (200 μl for each well) was used, and cDNA was obtained by the reverse transcription reaction at a scale of 40 μl, using PrimeScript RT Master Mix (Takara). The reaction conditions were as set forth in the manual for the kit.
# (6) 0.5 μl of each of cDNA solutions diluted 2-fold with water, 1 μl of a solution containing 4 μM of each of primers 1 and 2 for each of the genes shown in Table 2, 5 μl of SYBR Premix Ex Taq II (Takara), and 3.5 μl of water were added, and quantitative PCR was performed on each of the genes. Using CFX96 Touch (BIO-RAD, USA), denaturation treatment at 95° C. for 30 seconds was performed, and then a two-step cycle at 95° C. for 5 seconds and at 62° C. for 20 seconds was performed for 65 cycles. Fluorescence intensity after each cycle was measured.
# (7) Using PGK1 and GAPDH as reference genes, a comparative analysis of expression levels was performed with the analysis software (Bio-Rad CFX Manager 3.0) included in CFX96Touch. Relative expression levels were calculated under the default conditions of the software. […]
# ALPL = experiment: Quantitative PCR gene expression in follicle dermal papilla cells: ALPL; format: cell-based, human; conditions: Example 3: 0.25% POs-Ca (R) or CaCl2 of equivalent calcium, DMEM, 37° C., 5 hours; Dunnett, n=6
# Method: as §1, §2, §3
# VEGFB = experiment: Quantitative PCR gene expression in follicle dermal papilla cells: VEGFB; format: cell-based, human; conditions: Example 3: 0.25% POs-Ca (R) or CaCl2 of equivalent calcium, DMEM, 37° C., 5 hours; Dunnett, n=6
# Method: as §1, §2, §3
compound,measurement,setting,value
"O.O.[Ca+2].[Cl-].[Cl-] [CaCl2, calcium chloride dihydrate]",proliferation rate tendency at low concentrations,"[1]; 0.0625% and 0.12% POs-Ca (R), 0.0115% and 0.023% calcium chloride",tended to decrease
same,increase of cell proliferation relative to the control,"[1]; 0.25% POs-Ca (R) or calcium chloride with equivalent calcium, 3 days, WST-1",5.6%
same,proliferation rate at high concentrations,"[1]; 0.5% and 1.0% POs-Ca (R), 0.092% and 0.184% calcium chloride",tended to increase
same,expression of versican gene compared to control,versican,significantly decreased
same,expression of VEGF gene compared to control,VEGF,significant increases in the expression of genes were not observed
same,expression of Wnt5a gene compared to control,Wnt5a,significant increases in the expression of genes were not observed
same,expression of ALPL gene compared to control,ALPL,significant increases in the expression of genes were not observed
same,expression of VEGFB compared to control,VEGFB,significantly increased
